Experimental findings from patent US11339144B2 (Navitor Pharmaceuticals, Inc., priority 2017, dated 2022) are described below.

Assay [1] deals with HA-GST-Rheb (GTP-γ-S loaded) activating mTORC1 (Homo sapiens (Human), UniProt Q15382). The assay can be described thus: Rheb-dependent in vitro kinase assay (Rheb-IVK; LanthaScreen or Western readout). It is filed as biochemical. To be noted: Rheb-dependent in vitro kinase assay; read-out: IVK IC50. (TR-FRET usually uses a lanthanide donor and a delayed reading to cut background.)
HA-GST-Rheb (GTP-γ-S loaded) activating mTORC1, sequence (Q15382 1-181): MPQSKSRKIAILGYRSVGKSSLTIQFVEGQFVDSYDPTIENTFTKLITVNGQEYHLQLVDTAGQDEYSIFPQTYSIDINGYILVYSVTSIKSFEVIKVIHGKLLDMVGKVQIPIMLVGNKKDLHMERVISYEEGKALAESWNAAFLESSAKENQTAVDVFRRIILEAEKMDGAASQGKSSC

The target in a further assay is Rheb (Homo sapiens (Human), UniProt Q15382). The assay can be described thus: Affinity Selection Mass Spectrometry (ASMS). To be noted: affinity (R3/R0) in Affinity Selection Mass Spectrometry assay. In kind it is binding. In a few lines:
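Human Rheb (60 μM) with GDP (180 μM) and each compound at 2 μM, protein-plus versus protein-minus, incubated 30 min at room temperature, then washed by 10 kDa ultrafiltration. Retained ligand was released with MeCN and detected by UPLC-Q-TOF MS.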

A value given as a limit tells only on which side of the number the result lay.

Rheb, sequence (Q15382 1-169 limits assumed): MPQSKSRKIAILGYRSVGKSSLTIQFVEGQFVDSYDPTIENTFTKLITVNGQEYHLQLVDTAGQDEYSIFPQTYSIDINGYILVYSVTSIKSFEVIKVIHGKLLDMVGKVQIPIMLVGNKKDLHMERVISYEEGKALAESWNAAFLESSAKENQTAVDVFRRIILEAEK

One may read the IC50 as the concentration that inhibits the measured activity by half. As to `CN1CCN(c2cccc(-c3nc4cc(Cl)c(Cl)cc4[nH]3)c2)CC1` [I-367], the IC50 in assay [1] was more than 100 µM. Besides, the “ASMS (R3/R0)” value at Rheb is “B (an affinity (R3/R0) between 100% and 20%)”.

`Clc1ccc(Sc2cccc3[nH]ccc23)cc1` [I-246, 4-(4-chlorophenylthio)-1H-indole]: the IC50 in assay [1] is 10 to 100 µM. The “ASMS (R3/R0)” value at Rheb is “C (an affinity (R3/R0)<20%)”.

With `Clc1ccc(Oc2cc(Cl)cc3[nH]ccc23)cc1` [I-204, 6-chloro-4-(4-chlorophenoxy)-1H-indole], in assay [1], the IC50 lay within 10 to 100 µM. Besides, on Rheb, the “ASMS (R3/R0)” value is “C (an affinity (R3/R0)<20%)”.

In the case of `O=C(O)c1cc2c(Sc3ccc(Cl)cc3)cc(Cl)cc2[nH]1` [I-190, 6-chloro-4-(4-chlorophenylthio)-1H-indole-2-carboxylic acid], the IC50 in assay [1] lay in the range of 10 to 100 µM. The “ASMS (R3/R0)” value on Rheb was “B (an affinity (R3/R0) between 100% and 20%)”.

Consider `CN(C)C(=O)c1ccc(Cn2c(C(=O)O)cc3c(Cl)nc(Sc4ccc(Cl)c(Cl)c4)cc32)cc1` [I-4, 4-chloro-6-(3,4-dichlorophenylthio)-1-(4-(dimethylcarbamoyl)benzyl)-1H-pyrrolo[3,2-c]pyridine-2-carboxylic acid], for which the IC50 in assay [1] was 10 to 100 µM. The “ASMS (R3/R0)” value at Rheb was “B (an affinity (R3/R0) between 100% and 20%)”.

Turning to `OCc1nc2c(OC[C@H]3CNCC[C@H]3O)c(Cl)c(Cl)cc2[nH]1` (racemic) [I-386], in assay [1], the IC50 was more than 100 µM. Besides, at Rheb, the “ASMS (R3/R0)” value is on record as “C (an affinity (R3/R0)<20%)”.

On to `Clc1ccc(Oc2cccc3[nH]ccc23)cc1` [I-283, 4-(4-chlorophenoxy)-1H-indole], for which, in assay [1], the IC50 was in the range of 100 to 300 µM. The “ASMS (R3/R0)” value at Rheb is “C (an affinity (R3/R0)<20%)”.

Turning to `CN1CCN(C(=O)c2cc3nc(-c4ccnc5[nH]ccc45)[nH]c3c(Cl)c2Cl)CC1` [I-321], the IC50 in assay [1] was more than 100 µM. The “ASMS (R3/R0)” value on Rheb was “C (an affinity (R3/R0)<20%)”.

With `O=C(NCC1CCN(Cc2ccccc2)C1)c1cc2c(Sc3ccc(Cl)cc3)cc(Cl)cc2[nH]1` (stereo not drawn) [I-136], the IC50 in assay [1] was more than 100 µM. The “ASMS (R3/R0)” value at Rheb is reported as “A (an affinity (R3/R0)>100%)”.

As to `O=C(NCC1CCOCC1)c1cc2c(Sc3ccc(Cl)cc3)cc(Cl)cc2[nH]1` [I-143], the IC50 in assay [1] was more than 100 µM. The “ASMS (R3/R0)” value at Rheb was “B (an affinity (R3/R0) between 100% and 20%)”.

As to `CC(c1ccc(C(=O)N(C)C)cc1)n1c(C(=O)O)cc2c(Br)cc(Sc3ccc(Cl)c(Cl)c3)cc21` (stereo not drawn) [I-5, 4-bromo-6-(3,4-dichlorophenylthio)-1-(1-(4-(dimethylcarbamoyl)phenyl)ethyl)-1H-indole-2-carboxylic acid], the IC50 in assay [1] was less than 10 µM. At Rheb, the “ASMS (R3/R0)” value was “B (an affinity (R3/R0) between 100% and 20%)”.

On to `OCc1nc2c(OC[C@H]3CCCC[C@H]3O)c(Cl)c(Cl)cc2[nH]1` (racemic) [I-394, (+,−)-cis-2-((5,6-dichloro-2-(hydroxymethyl)-1H-benzo[d]imidazol-4-yloxy)methyl)cyclohexanol], for which the IC50 in assay [1] was in the range of 10 to 100 µM. On Rheb, the “ASMS (R3/R0)” value was “B (an affinity (R3/R0) between 100% and 20%)”.

In the case of `CN(C)C(=O)c1cccc(Cn2c(C(=O)O)cc3c(Br)cc(Oc4ccccc4)cc32)c1` [I-40, 4-bromo-1-(3-(dimethylcarbamoyl)benzyl)-6-phenoxy-1H-indole-2-carboxylic acid], in assay [1], the IC50 fell in the range of 10 to 100 µM. For the same compound, the “ASMS (R3/R0)” value at Rheb is reported as “C (an affinity (R3/R0)<20%)”.

On to `CN1CCN(c2ccc(NC(=O)c3cc4c(Sc5ccc(Cl)cc5Cl)cc(Cl)cc4[nH]3)cc2Cl)CC1` [I-111, 6-chloro-N-(3-chloro-4-(4-methylpiperazin-1-yl)phenyl)-4-(2,4-dichlorophenylthio)-1H-indole-2-carboxamide], for which the IC50 in assay [1] is less than 10 µM. Also, the “ASMS (R3/R0)” value at Rheb is on record as “C (an affinity (R3/R0)<20%)”.

With `CN1CC(NC(=O)c2cc3c(-c4cc(Cl)cc(Cl)c4)cc(Cl)cc3[nH]2)C1` [I-26], in assay [1], the half-inhibitory concentration (IC50) is more than 100 µM. Also, the “ASMS (R3/R0)” value at Rheb is “B (an affinity (R3/R0) between 100% and 20%)”.

Take `CNCc1cc2c(Br)cc(Sc3ccc(Cl)c(Cl)c3)cc2n1Cc1ccc(C(=O)N(C)C)cc1` [I-38]: the IC50 in assay [1] was more than 100 µM. Moreover, at Rheb, the “ASMS (R3/R0)” value is on record as “A (an affinity (R3/R0)>100%)”.

`COC(=O)c1ccc(-c2nc3cc(Cl)c(Cl)cc3[nH]2)cc1` [I-363, methyl 4-(5,6-dichloro-1H-benzo[d]imidazol-2-yl)benzoate]: the IC50 in assay [1] lay in the range of 10 to 100 µM. In addition, at Rheb, the “ASMS (R3/R0)” value is reported as “A (an affinity (R3/R0)>100%)”.

As for `OCc1cc2c(Oc3cc(Cl)ccc3Cl)cc(Cl)cc2[nH]1` [I-171, (6-Chloro-4-(2,5-dichlorophenoxy)-1H-indol-2-yl)methanol], the IC50 in assay [1] was in the range of 10 to 100 µM. For the same compound, the “ASMS (R3/R0)” value on Rheb is “B (an affinity (R3/R0) between 100% and 20%)”.

For the compound `OCc1cc2c(Br)cc(OCCc3ccccc3)cc2[nH]1` [I-236, (4-Bromo-6-phenethoxy-1H-indol-2-yl)methanol], the IC50 in assay [1] fell in the range of 10 to 100 µM. Moreover, the “ASMS (R3/R0)” value on Rheb is “B (an affinity (R3/R0) between 100% and 20%)”.

Take `OCc1cc2c(Cl)cc(Oc3ccccc3)cc2n1Cc1nc[nH]n1` [I-226]: the IC50 in assay [1] was more than 100 µM. In addition, the “ASMS (R3/R0)” value at Rheb is given as “C (an affinity (R3/R0)<20%)”.

On to `N[C@@H]1CCCC[C@@H]1COc1c(Cl)c(Cl)cc2[nH]c(CO)nc12` (racemic) [I-376, (4-(((+,−)-cis-2-aminocyclohexyl)methoxy)-5,6-dichloro-1H-benzo[d]imidazol-2-yl)methanol], for which the IC50 in assay [1] lay within 100 to 300 µM. At Rheb, the “ASMS (R3/R0)” value is reported as “C (an affinity (R3/R0)<20%)”.

As to `OCc1cc2c(Cl)cc(Oc3ccccc3)cc2n1Cc1nn[nH]n1` [I-194, (1-((2H-tetrazol-5-yl)methyl)-4-chloro-6-phenoxy-1H-indol-2-yl)methanol], the IC50 in assay [1] lay within 10 to 100 µM. Besides, the “ASMS (R3/R0)” value at Rheb is “C (an affinity (R3/R0)<20%)”.

For the compound `Nc1cc(CCOc2c(Cl)c(Cl)cc3[nH]c(CO)nc23)ccn1` [I-382], the IC50 in assay [1] lay in the range of 100 to 300 µM. Besides, on Rheb, the “ASMS (R3/R0)” value is recorded as “C (an affinity (R3/R0)<20%)”.

On to `CN(C)C(=O)c1ccc(Cn2c(C(=O)O)cc3c(Cl)cc(Sc4ccc(Cl)c(Cl)c4)cc32)cc1` [I-75, 4-chloro-6-(3,4-dichlorophenylthio)-1-(4-(dimethylcarbamoyl)benzyl)-1H-indole-2-carboxylic acid], for which, in assay [1], the concentration for half-maximal inhibition (IC50) is less than 10 µM. At Rheb, the “ASMS (R3/R0)” value was “B (an affinity (R3/R0) between 100% and 20%)”.

Consider `CN(C)C(=O)c1ccc(Cn2c(C(=O)O)cc3c(Sc4cccc(OC(F)(F)F)c4)cc(Sc4cccc(OC(F)(F)F)c4)cc32)cc1` [I-19, 1-(4-(dimethylcarbamoyl)benzyl)-4,6-bis(3-(trifluoromethoxy)phenylthio)-1H-indole-2-carboxylic acid], for which, in assay [1], the IC50 was less than 10 µM. For the same compound, the “ASMS (R3/R0)” value on Rheb is “B (an affinity (R3/R0) between 100% and 20%)”.

As for `O=C(O)c1cc2c(Br)cc(Sc3ccc(Cl)c(Cl)c3)cc2n1Cc1ccc(C(=O)N(CCO)CCO)cc1` [I-50, 1-(4-(bis(2-hydroxyethyl)carbamoyl)benzyl)-4-bromo-6-(3,4-dichlorophenylthio)-1H-indole-2-carboxylic acid], the IC50 in assay [1] was less than 10 µM. Further, the “ASMS (R3/R0)” value at Rheb was “B (an affinity (R3/R0) between 100% and 20%)”.

Consider `Clc1c(Br)cc2nc(-c3ccncc3)[nH]c2c1Cl` [I-357], for which the IC50 in assay [1] is more than 100 µM. Moreover, the “ASMS (R3/R0)” value on Rheb is recorded as “A (an affinity (R3/R0)>100%)”.

In the case of `CN(C)C(=O)c1ccc(Cn2c(C(=O)O)cc3ccc(Sc4ccc(Cl)c(Cl)c4)c(Br)c32)cc1` [I-6, 7-bromo-6-(3,4-dichlorophenylthio)-1-(4-(dimethylcarbamoyl)benzyl)-1H-indole-2-carboxylic acid], the IC50 in assay [1] is less than 10 µM. Also, the “ASMS (R3/R0)” value on Rheb was “B (an affinity (R3/R0) between 100% and 20%)”.

As for `O=C(O)c1cc2c(Br)cc(Sc3ccc(Cl)c(Cl)c3)cc2n1Cc1ccc(C(=O)N2CCNCC2)cc1` [I-43], the IC50 in assay [1] is more than 100 µM. Further, at Rheb, the “ASMS (R3/R0)” value is “A (an affinity (R3/R0)>100%)”.

In the case of `O=C(NO)c1cc2c(Sc3ccc(Cl)cc3)cc(Cl)cc2[nH]1` [I-177, 6-chloro-4-(4-chlorophenylthio)-N-hydroxy-1H-indole-2-carboxamide], the IC50 in assay [1] was in the range of 10 to 100 µM. For the same compound, the “ASMS (R3/R0)” value at Rheb is listed as “A (an affinity (R3/R0)>100%)”.

Take `CN(C)C(=O)c1ccc(Cn2c(CN)cc3c(Br)cc(Sc4ccc(Cl)c(Cl)c4)cc32)cc1` [I-37]: in assay [1], the IC50 is more than 100 µM. Also, on Rheb, the “ASMS (R3/R0)” value is on record as “C (an affinity (R3/R0)<20%)”.

For the compound `O=C(O)c1ccc(CCn2c(-c3c[nH]c4ncccc34)nc3cc(Cl)c(Cl)cc32)cc1` [I-335, 4-(2-(5,6-dichloro-2-(1H-pyrrolo[2,3-b]pyridin-3-yl)-1H-benzo[d]imidazol-1-yl)ethyl)benzoic acid], the IC50 in assay [1] fell in the range of 100 to 300 µM. For the same compound, the “ASMS (R3/R0)” value on Rheb was “B (an affinity (R3/R0) between 100% and 20%)”.

As to `OCc1nc2cc(Sc3ccc(Cl)cc3Cl)c(Cl)c(Cl)c2[nH]1` [I-358, (6,7-dichloro-5-(2,4-dichlorophenylthio)-1H-benzo[d]imidazol-2-yl)methanol], in assay [1], the IC50 was in the range of 10 to 100 µM. Moreover, at Rheb, the “ASMS (R3/R0)” value is “B (an affinity (R3/R0) between 100% and 20%)”.

On to `CC(=O)c1cc2c(Oc3ccccc3)cc(Cl)cc2[nH]1` [I-150], for which the IC50 in assay [1] is more than 100 µM. In addition, the “ASMS (R3/R0)” value on Rheb was “C (an affinity (R3/R0)<20%)”.

With `CN(C)C(=O)c1ccc(Cn2c(C(=O)O)cc3c(Br)cc(SC4CCCCC4)cc32)cc1` [I-11], the IC50 in assay [1] was more than 3 µM. Also, the “ASMS (R3/R0)” value on Rheb was “B (an affinity (R3/R0) between 100% and 20%)”.

`O=C(O)c1cc2c(Sc3ccc(Oc4ccccc4)cc3)cc(Cl)cc2[nH]1` [I-118, 6-chloro-4-(4-phenoxyphenylthio)-1H-indole-2-carboxylic acid]: the IC50 in assay [1] was less than 10 µM. The “ASMS (R3/R0)” value on Rheb was “B (an affinity (R3/R0) between 100% and 20%)”.
